According to ChEMBL document CHEMBL5321294, “Evolution of Slow-Binding Inhibitors Targeting Histone Deacetylase Isoforms” (J Med Chem, 2023):
Non-standard residues stand in square brackets, D forms with d. Residues, ends and D or L forms follow the SMILES beside them. *: point of attachment. Asu = N[C@@H](CCCCCC(=O)O)C(=O)O; dPip = O=C(O)[C@H]1CCCCN1; NHOH = ON*

How the values were obtained:
[1] = molecular target: T1, Protein deacetylase HDAC6 (Homo sapiens) (UniProt Q9UBN7); test: Binding affinity to recombinant human HDAC6 using Ac-Leu-Gly-Lys(Ac)-AMC as substrate measured after 60 mins assessed as binding constant (k2) by fluorescence based assay
T1 sequence (whole entry): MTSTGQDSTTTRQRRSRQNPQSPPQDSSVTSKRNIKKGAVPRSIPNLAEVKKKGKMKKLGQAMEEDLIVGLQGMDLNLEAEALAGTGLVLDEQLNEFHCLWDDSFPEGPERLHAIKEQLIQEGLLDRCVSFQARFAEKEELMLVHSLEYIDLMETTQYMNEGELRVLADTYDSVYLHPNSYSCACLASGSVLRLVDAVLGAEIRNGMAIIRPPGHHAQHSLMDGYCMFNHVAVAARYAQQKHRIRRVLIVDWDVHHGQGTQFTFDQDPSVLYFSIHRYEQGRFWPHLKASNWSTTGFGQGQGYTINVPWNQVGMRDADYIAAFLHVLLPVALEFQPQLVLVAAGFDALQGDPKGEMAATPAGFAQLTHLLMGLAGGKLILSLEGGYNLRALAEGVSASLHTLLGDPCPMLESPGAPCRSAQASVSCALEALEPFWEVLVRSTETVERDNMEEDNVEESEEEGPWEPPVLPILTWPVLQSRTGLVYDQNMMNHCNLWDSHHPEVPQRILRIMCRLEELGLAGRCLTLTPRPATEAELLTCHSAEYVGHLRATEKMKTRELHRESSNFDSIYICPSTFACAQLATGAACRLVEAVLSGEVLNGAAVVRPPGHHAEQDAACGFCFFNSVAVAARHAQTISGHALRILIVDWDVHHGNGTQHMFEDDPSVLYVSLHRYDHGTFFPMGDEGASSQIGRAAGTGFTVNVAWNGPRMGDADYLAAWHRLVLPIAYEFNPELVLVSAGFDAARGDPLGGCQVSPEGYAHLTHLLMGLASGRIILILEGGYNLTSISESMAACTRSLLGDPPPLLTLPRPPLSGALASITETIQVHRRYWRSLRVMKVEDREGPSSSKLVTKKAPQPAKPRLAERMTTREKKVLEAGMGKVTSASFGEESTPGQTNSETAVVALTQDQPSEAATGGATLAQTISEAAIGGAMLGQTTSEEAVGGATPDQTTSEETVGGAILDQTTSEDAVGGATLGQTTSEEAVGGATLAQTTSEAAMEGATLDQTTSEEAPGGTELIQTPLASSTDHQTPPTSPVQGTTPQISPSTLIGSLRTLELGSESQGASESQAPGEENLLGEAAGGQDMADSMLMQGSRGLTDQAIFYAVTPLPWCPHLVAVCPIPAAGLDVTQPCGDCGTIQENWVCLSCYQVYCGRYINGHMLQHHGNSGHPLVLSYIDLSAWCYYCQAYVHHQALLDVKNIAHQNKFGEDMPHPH

[2] = molecular target: T2, Histone deacetylase 11 (Homo sapiens) (UniProt Q96DB2); test: Binding affinity to human HDAC11 assessed as binding constant (k-2)
T2 sequence (whole entry): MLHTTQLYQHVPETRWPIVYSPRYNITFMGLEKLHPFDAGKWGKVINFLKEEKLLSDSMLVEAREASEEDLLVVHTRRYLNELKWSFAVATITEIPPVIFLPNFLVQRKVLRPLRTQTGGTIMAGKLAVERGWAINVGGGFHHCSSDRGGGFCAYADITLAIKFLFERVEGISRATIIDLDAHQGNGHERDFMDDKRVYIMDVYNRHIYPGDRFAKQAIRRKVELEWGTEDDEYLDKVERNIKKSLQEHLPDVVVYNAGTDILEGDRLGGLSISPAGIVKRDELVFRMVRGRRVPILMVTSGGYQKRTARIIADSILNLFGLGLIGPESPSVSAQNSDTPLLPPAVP

Histone deacetylase 2 = Histone deacetylase 2 (Homo sapiens, UniProt Q92769); test: Binding affinity to HDAC2 (unknown origin) assessed as inhibition constant(ki,1)
[3] = molecular target: T3, Protein deacetylase HDAC6 (Homo sapiens, UniProt Q9UBN7); test: Binding affinity to recombinant human HDAC6 using Ac-Leu-Gly-Lys(Ac)-AMC as substrate measured after 60 mins assessed as inhibition constant by fluorescence based assay
T3 sequence (Q9UBN7 whole entry): T1 sequence (whole entry)

[4] = molecular target: T2, Histone deacetylase 11 (Homo sapiens); test: Binding affinity to human HDAC11 assessed as binding constant (k2)
[5] = molecular target: T1, Protein deacetylase HDAC6 (Homo sapiens); test: Binding affinity to recombinant human HDAC6 using Ac-Leu-Gly-Lys(Ac)-AMC as substrate assessed as residence time
Histone deacetylase 3 [6] = molecular target: T4, Histone deacetylase 3 (Homo sapiens, UniProt O15379); test: Binding affinity to HDAC3 (unknown origin) assessed as binding constant(k-2)
Histone deacetylase 11 = molecular target: T5, Histone deacetylase 11 (Homo sapiens, UniProt Q96DB2); test: Binding affinity to human HDAC11 assessed as inhibition constant (ki,1)
T5 sequence (Q96DB2 whole entry): T2 sequence (whole entry)

[7] = molecular target: T1, Protein deacetylase HDAC6 (Homo sapiens); test: Binding affinity to recombinant human HDAC6 using Ac-Leu-Gly-Lys(Ac)-AMC as substrate measured after 60 mins assessed as binding constant (k-2) by fluorescence based assay
Histone deacetylase 3 [8] = molecular target: T4, Histone deacetylase 3; test: Binding affinity to HDAC3 (unknown origin) assessed as inhibition constant(ki,1)
[9] = molecular target: T3, Protein deacetylase HDAC6; test: Binding affinity to recombinant human HDAC6 using Ac-Leu-Gly-Lys(Ac)-AMC as substrate measured after 60 mins assessed as inhibition constant (ki,1) by fluorescence based assay
Histone deacetylase 1 = Histone deacetylase 1 (Homo sapiens, UniProt Q13547); test: Binding affinity to HDAC1 (unknown origin) assessed as inhibition constant(ki,1)
Histone deacetylase 3 [10] = molecular target: T4, Histone deacetylase 3; test: Binding affinity to HDAC3 (unknown origin) assessed as inhibition constant
Histone deacetylase 3 [11] = molecular target: T4, Histone deacetylase 3; test: Binding affinity to HDAC3 (unknown origin) assessed as binding constant(k2)
Histone deacetylase 3 [12] = molecular target: T4, Histone deacetylase 3; test: Binding affinity to HDAC3 (unknown origin) assessed as residence time

T4 sequence (O15379 whole entry): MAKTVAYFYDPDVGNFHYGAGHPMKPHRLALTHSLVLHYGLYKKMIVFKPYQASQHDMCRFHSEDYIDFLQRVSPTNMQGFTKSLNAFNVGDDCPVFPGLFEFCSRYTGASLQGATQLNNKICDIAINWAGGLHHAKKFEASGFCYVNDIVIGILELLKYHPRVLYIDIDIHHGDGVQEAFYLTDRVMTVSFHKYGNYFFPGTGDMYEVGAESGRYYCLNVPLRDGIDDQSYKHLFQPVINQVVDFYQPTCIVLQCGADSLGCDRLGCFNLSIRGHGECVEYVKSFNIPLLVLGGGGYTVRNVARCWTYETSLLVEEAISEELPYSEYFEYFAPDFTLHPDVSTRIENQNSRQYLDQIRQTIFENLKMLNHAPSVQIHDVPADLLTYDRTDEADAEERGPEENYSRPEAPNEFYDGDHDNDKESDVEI
Histone deacetylase 1, sequence (Q13547 whole entry): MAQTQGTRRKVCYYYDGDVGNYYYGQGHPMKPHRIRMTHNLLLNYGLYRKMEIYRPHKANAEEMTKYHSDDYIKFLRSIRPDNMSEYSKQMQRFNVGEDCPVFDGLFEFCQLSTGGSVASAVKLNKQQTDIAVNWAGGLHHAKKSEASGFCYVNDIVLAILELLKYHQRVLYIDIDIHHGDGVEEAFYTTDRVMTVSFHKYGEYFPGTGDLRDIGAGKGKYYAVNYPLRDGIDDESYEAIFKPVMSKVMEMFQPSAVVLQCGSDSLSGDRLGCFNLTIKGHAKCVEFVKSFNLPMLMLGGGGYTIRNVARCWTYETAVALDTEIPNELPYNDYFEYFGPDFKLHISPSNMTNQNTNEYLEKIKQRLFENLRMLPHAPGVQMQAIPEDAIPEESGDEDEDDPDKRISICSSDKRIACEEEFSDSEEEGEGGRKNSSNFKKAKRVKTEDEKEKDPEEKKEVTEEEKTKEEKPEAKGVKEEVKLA
Histone deacetylase 2, sequence (Q92769 whole entry): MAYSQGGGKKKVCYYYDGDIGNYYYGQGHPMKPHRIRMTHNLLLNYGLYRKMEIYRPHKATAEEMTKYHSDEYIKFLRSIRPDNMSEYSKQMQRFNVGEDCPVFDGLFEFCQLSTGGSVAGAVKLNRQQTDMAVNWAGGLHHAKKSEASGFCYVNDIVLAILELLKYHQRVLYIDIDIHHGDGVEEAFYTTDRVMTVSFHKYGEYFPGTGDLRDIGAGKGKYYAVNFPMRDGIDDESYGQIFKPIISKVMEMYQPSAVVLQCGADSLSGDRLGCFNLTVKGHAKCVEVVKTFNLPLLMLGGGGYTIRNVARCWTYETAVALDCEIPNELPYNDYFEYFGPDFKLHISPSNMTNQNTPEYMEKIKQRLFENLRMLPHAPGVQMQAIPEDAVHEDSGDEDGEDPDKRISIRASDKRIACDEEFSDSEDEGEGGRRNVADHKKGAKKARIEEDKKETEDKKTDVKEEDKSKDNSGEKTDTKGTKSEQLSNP

CC[C@H](C)[C@@H]1NC(=O)[C@H](Cc2c[nH]c3ccccc23)NC(=O)[C@H](CCCCCC(=O)NO)NC(=O)[C@H]2CCCCN2C1=O (cyclo([Asu](NHOH)WI[dPip]))
K [1]: 0.17 min⁻¹
K [2]: 0 min⁻¹
Ki (Histone deacetylase 2): 0.35 nM
Ki [3]: ~3.6 nM
K [4]: 0.73 min⁻¹
TIME [5]: 1.67 h
K (Histone deacetylase 3 [6]): 0.009 min⁻¹
Ki (Histone deacetylase 11): 18 nM
K [7]: 0.01 min⁻¹
Ki (Histone deacetylase 3 [8]): 1.6 nM
Ki [9]: 23 nM
Ki (Histone deacetylase 1): 0.32 nM
Ki (Histone deacetylase 3 [10]): 0.04 nM
K (Histone deacetylase 3 [11]): 0.158 min⁻¹
TIME (Histone deacetylase 3 [12]): 1.85 h
